Measured values reported in PMC3800496 (ACS Chemical Biology, 2013).

How the values were obtained:
Test in all cases: anti-proliferation assay
Type in all cases: cell-based
[1] = system: SaoS2(WT); conditions: Homo sapiens, SAOS-2, 48 h, read-out: anti-proliferation GI50
[2] = system: SW480(OWT); conditions: Homo sapiens, SW480, 48 h, read-out: anti-proliferation GI50
[3] = system: SNU-1040(OMT); conditions: Homo sapiens, 48 h, read-out: anti-proliferation GI50
[4] = system: T47D(OWT); conditions: Homo sapiens, 48 h, read-out: anti-proliferation GI50
[5] = system: A549(WT); conditions: Homo sapiens, A549, 48 h, read-out: anti-proliferation GI50
[6] = system: EJ(WT); conditions: 48 h, read-out: anti-proliferation GI50
[7] = system: H1975(WT); conditions: Homo sapiens, NCI-H1975, 48 h, read-out: anti-proliferation GI50
[8] = system: SNU-449(OMT); conditions: Homo sapiens, SNU-449, 48 h, read-out: anti-proliferation GI50
[9] = system: SkBr3(WT); conditions: Homo sapiens, SK-BR-3, 48 h, read-out: anti-proliferation GI50
[10] = system: HCT-116(OWT); conditions: Homo sapiens, HCT-116, 48 h, read-out: anti-proliferation GI50

- GI50 [2]: > 10 µM
- GI50 [3]: > 10 µM
- GI50 [4]: > 10 µM
- GI50 [5]: > 10 µM
- GI50 [7]: > 10 µM
- GI50 [8]: > 10 µM
- GI50 [10]: 8.7 µM
Compound: CCN1CCN(Cc2ccc(C(=O)Nc3ccc(C)c(Oc4ccc5c(c4)CC(=O)N5)c3)cc2C(F)(F)F)CC1 [DDR1-IN-1]
- GI50 [1]: 8.14 µM
- GI50 [6]: > 10 µM
- GI50 [9]: > 10 µM
